Reference: publication PMC10394516, “The pharmacokinetic profile of brensocatib and its effect on pharmacodynamic biomarkers including NE, PR3, and CatG in various rodent species” (Frontiers in Pharmacology, 2023)

How the values were obtained:
Format in all cases: in vivo
CatG [1] = test: Bone marrow CatG activity after repeated dosing, C57BL/6 mice; conditions: for Reduction of CatG activity vs vehicle / Change From Vehicle Control (%) CatG: 7 days
Experimental: Briefly, animals were weighed and randomized into different treatment groups. In total, three different dosing levels of brensocatib were tested in each species and strain; each QD dosing level was equivalent to 1.5-times the matching daily BID dose. For BID dosing, the second daily dose was administered 8-h post the morning dose. C57BL/6 mice were dosed either BID or QD for 7 consecutive days at 0/0, 0.5/0.75, 2/3, and 20/30 mg/kg/day (BID/QD). BALB/c mice were dosed for 7 consecutive days at 0/0, 0.2/0.3, 2/3, and 20/30 mg/kg/day (BID/QD). SD rats were dosed for 9 consecutive days at 0/0, 0.2/0.3, 2/3, and 20/30 mg/kg/day (BID/QD). Wistar rats were dosed for 7 consecutive days at 0/0, 0.2/0.3, 2/3, and 20/30 mg/kg/day (BID/QD).
At the completion of the study, animals were sacrificed 16–24 h post their final dose. The hind limb bones (femurs and tibias) were collected at necropsy for bone marrow analysis of NSP activities by kinetic enzymatic assays ([Basso et al., 2022]). See section Quantification of Bone Marrow NSP Activities for details.
(§1) For the mice, each animal had the femurs and tibias of both hind limbs harvested. For the rat, the femur and tibia from a single hind limb per animal was harvested. Bones were kept on wet ice until processing for bone marrow collection. In brief, bone cutters were used to cut the epiphysis (knobby ends) off the long bones to expose the bone marrow filled cavity. Each bone cavity was then flushed with 5 mL/bone (mouse) or 10 mL/bone (rat) of ice-cold RPMI media through a […] and collected in a 50-mL conical tube. Cells were spun down at 2,500 × g at 4°C for 5 min and the supernatant was aspirated. After which, bone marrow cells were lysed with 1X red blood cell (RBC) lysis buffer (Abcam, ab204733) to eliminate contaminating RBCs and washed with PBS to remove any residual RBC lysis buffer. The resulting white blood cells (WBC) were subsequently lysed with 1% (v/v) Triton X-100 in PBS. Lysates were added to 96-well plates and stored at −80°C until NSP analyses.
(§2) Bone marrow lysates prepared as described above were diluted and plated onto 96-well assay plates to quantify NSP activities as described previously ([Basso et al., 2022]). Briefly, peptide substrates for NE (N-Methoxysuccinyl-Ala-Ala-Pro-Val-7-amido-4-methylcoumarin; Sigma; St. Louis, MO; Excitation/Emission at 350/450 nm), PR3 ((7-Methoxycoumarin-4-yl)acetyl-lysyl-(picolinoyl)-Tyr-Asp-Ala-Lys-Gly-Asp-N-3-(2-4-dinitrophenyl)-2-3-diaminopropyonyl-NH2); GenScript; Piscataway, NJ; Excitation/Emission at 340/430 nm), and CatG (N-Succinyl-Ala-Ala-Pro-Phe p nitroanilide; Sigma; Absorbance at 405 nm) were added at a final assay concentration of 100 μM, 40 μM, and 200 μM, respectively, and either fluorescence or absorbance was quantified using a Synergy microplate reader (BioTek; Winooski, VT). The specific NSP activity in each sample was calculated as the total activity minus the activity in the presence of a specific NSP inhibitor (if used), including elastase inhibitor (Abcam) for NE, sivelestat (Abcam) for PR3, and cathepsin G inhibitor I (Cayman Chemical; Ann Arbor, MI) for CatG. NSP concentrations were interpolated based on their activities relative to the standard curves created using active human NE protein (Sigma), active human PR3 protein (Sigma), and active human CatG protein (Sigma), respectively. Due to unavailability of commercial mouse and/or rat NE, PR3, and CatG proteins, the corresponding human proteins were used instead since their catalytic ability is considered to be conserved across species. A portion of each cell lysate sample was retained for protein quantification using a Pierce™ BCA Protein Assay Kit (Thermo Fisher). The NSP activities were normalized for the cell lysate protein concentrations.
The Pierce™ BCA Protein Assay Kit was used to measure the total protein of the samples after lysis to allow for subsequent normalization. […]

CatG [2] = test: PD recovery study, bone marrow CatG activity, C57BL/6 mice; conditions: for Percent change from vehicle CatG: bone marrow
Experimental: A PD recovery study was performed in female C57BL/6 mice dosed BID for 8 consecutive days. Mice were dosed by oral gavage either with vehicle (0 mg/kg) or 5 mg/kg brensocatib (BID; 10 mg/kg/day). After 8 consecutive days of dosing, the animals were maintained without further treatment until prescribed sacrifice (days: 1, 3, 6, 8, and 10 days post final dose). Plasma was collected from animals during the first 24 h of dosing at −0.5 (half-hour prior to dosing), 1, 8, 9, and 24 h post initial dose. Note that the 8- and 24-h plasma samples were prior to the afternoon dose and prior to the second day dose, respectively. Plasma was used for PK analysis via LC-MS/MS. On prescribed days, animals were sacrificed, and the hind limb bones (femurs and tibias) were collected at necropsy for bone marrow analysis of NSP activities by kinetic enzymatic assays.
as §1, §2
(§3) The Pierce™ BCA Protein Assay Kit was used to measure the total protein of the samples after lysis to allow for subsequent normalization. The manufacturer’s instructions for use were followed when performing this assay on a portion of the sample lysates which were diluted in PBS, the same diluent as used for preparation of the standard. Plates were read on the Biotek Synergy plate reader with Gen5 software.

CatG [3] = test: PD onset study, bone marrow CatG activity, C57BL/6 mice; conditions: for Percent change from vehicle CatG: bone marrow, 5 mg/kg BID oral
Experimental: A 14-day PD onset study was performed in female C57BL/6 mice dosed BID. Mice were dosed by oral gavage either with vehicle (0 mg/kg) or 5 mg/kg brensocatib (BID; 10 mg/kg/day) for 1, 4, 7, 10, or 14 consecutive days. Plasma was collected from animals during the first 24 h of dosing at 1, 2, 8, 9, 10, and 24 h post the initial dose. Note the 8- and 24-h plasma samples were prior to the afternoon dose and the second day dose (if applicable), respectively. Plasma was used for PK analysis via LC-MS/MS. On prescribed days, animals were sacrificed 16 h post final dose, and the hind bones (femurs and tibias) were collected at necropsy for bone marrow analysis of NSP activities by kinetic enzymatic assays.
as §1, §2, §3

[4] = after 8 days of 5 mg/kg BID, curve fit with free min and max
[5] = 5 mg/kg BID, curve fit with free min and max

**Q.** For `Cn1c(=O)oc2ccc(-c3ccc(C[C@@H](C#N)NC(=O)[C@@H]4CNCCCO4)cc3)cc21` [brensocatib], which “Reduction of CatG activity vs vehicle” value (CatG [1]; BID highest dose (20 mg/kg/day)) is on record?
**A.** 94%

**Q.** And the “Reduction of CatG activity vs vehicle” value (CatG [1]; QD highest dose (30 mg/kg/day))?
**A.** 87%

**Q.** What about the “Combined BID and QD percent reduction, CatG” value (CatG [1]; highest dose level 20/30 (BID/QD) mg/kg/day) of the same compound?
**A.** 90%

**Q.** And the “Change From Vehicle Control (%) CatG” value (CatG [1]; oral BID 0.5 mg/kg/day, 16 h post final dose)?
**A.** −16% (p = 0.1964)

**Q.** And the “Change From Vehicle Control (%) CatG” value (CatG [1]; oral BID 2 mg/kg/day, 16 h post final dose)?
**A.** −71% (p < 0.0001)

**Q.** What about the “Change From Vehicle Control (%) CatG” value (CatG [1]; oral BID 20 mg/kg/day, 16 h post final dose) of the same compound?
**A.** −94% (p < 0.0001)

**Q.** And the “Change From Vehicle Control (%) CatG” value (CatG [1]; oral QD 0.75 mg/kg/day, 24 h post final dose)?
**A.** −1% (p = 0.9999)

**Q.** What about the “Change From Vehicle Control (%) CatG” value (CatG [1]; oral QD 3 mg/kg/day, 24 h post final dose) of the same compound?
**A.** −64% (p < 0.0001)

**Q.** What about the “Change From Vehicle Control (%) CatG” value (CatG [1]; oral QD 30 mg/kg/day, 24 h post final dose) of the same compound?
**A.** −87% (p < 0.0001)

**Q.** What about the “Recovery: Time to reach 50% recovery, CatG” value (CatG [2]; [4]) of the same compound?
**A.** 3.3 days

**Q.** What about the “Recovery: Time to reach 90% recovery, CatG” value (CatG [2]; [4]) of the same compound?
**A.** 5.2 days

**Q.** And the “Recovery: Time to reach 95% recovery, CatG” value (CatG [2]; [4])?
**A.** 5.5 days

**Q.** And the “Recovery: Time to reach 100% recovery, CatG” value (CatG [2]; [4])?
**A.** 5.8 days

**Q.** What about the “Percent change from vehicle CatG” value (CatG [2]; 1 day recovery after 8 days of 5 mg/kg BID) of the same compound?
**A.** −93% (p < 0.0001)

**Q.** What about the “Percent change from vehicle CatG” value (CatG [2]; 3 days recovery after 8 days of 5 mg/kg BID) of the same compound?
**A.** −60% (p < 0.0001)

**Q.** What about the “Percent change from vehicle CatG” value (CatG [2]; 6 days recovery after 8 days of 5 mg/kg BID) of the same compound?
**A.** −14% (p = 0.2431)

**Q.** What about the “Percent change from vehicle CatG” value (CatG [2]; 8 days recovery after 8 days of 5 mg/kg BID) of the same compound?
**A.** +26% (p = 0.0133)

**Q.** What about the “Percent change from vehicle CatG” value (CatG [2]; 10 days recovery after 8 days of 5 mg/kg BID) of the same compound?
**A.** +38% (p < 0.0001)

**Q.** And the “Onset: Maximum reduction (plateau), CatG” value (CatG [3]; [5])?
**A.** 97%

**Q.** What about the “Onset: Time to reach 50% reduction, CatG” value (CatG [3]; [5]) of the same compound?
**A.** 2.8 days

**Q.** What about the “Onset: Time to reach max reduction, CatG” value (CatG [3]; [5]) of the same compound?
**A.** 8.1 days

**Q.** And the “Percent change from vehicle CatG” value (CatG [3]; after 1 day of treatment)?
**A.** −26% (0.0727)

**Q.** What about the “Percent change from vehicle CatG” value (CatG [3]; after 4 days of treatment) of the same compound?
**A.** −81% (p < 0.0001)

**Q.** What about the “Percent change from vehicle CatG” value (CatG [3]; after 7 days of treatment) of the same compound?
**A.** −99% (p < 0.0001)

**Q.** What about the “Percent change from vehicle CatG” value (CatG [3]; after 10 days of treatment) of the same compound?
**A.** −93% (p < 0.0001)

**Q.** What about the “Percent change from vehicle CatG” value (CatG [3]; after 14 days of treatment) of the same compound?
**A.** −99% (p < 0.0001)
